Converted amounts (≈) assume the structure as drawn.
What was measured:
P. berghei (Anka) = test: In vitro 3H-hypoxanthine incorporation test with P. berghei (Anka); assay type: cell-based, Plasmodium berghei; conditions: Anka strain
Method: (§1) In vitro testing with P. falciparum was as follows. Each compound was dissolved in DMSO at a concentration of 20 mg ml^−1. These solutions were further diluted with physiological saline to obtain a stock solution of 500 μg ml^−1. Each test substance was applied in a series of seven, 4-fold dilutions (maximum concentrations 50 or 5 μg ml^−1). Each compound was tested in 6-fold repeats. Chloroquine was tested similarly, as a positive control.
(§2) The test protocol was performed in vitro, based upon the method of Desjardins, et al. (Antimicrobial Agents Chemother., 16, 710-715, 1979). The parasites (200 μl of a suspension with initial parasitemia of 0.5% and hematocrit of 1.5%) were incubated for 24 h in microtitre plates (Falcon MicroTest III) in hypoxanthine-free medium in the presence of 25 μl of test solution. The plates contained a negative control (6 wells with non-parasitized RBC's, no drug) and a positive control (6 wells with parasitized RBC's no drug). Thereafter, 25 μl of ^3H-hypoxanthine solution (Amersham) was added (0.5 μCi well ^−1), and the parasites were incubated for a further period of 18 h. Each well was harvested with a Cell Harvester (Nunc). The filter papers were dried for 2 h at 52° C., and their radioactivity was measured by liquid scintillation counting in Optiscint HiSafe (LKB Pharmacia).
(§3) The mean results, obtained as counts per min (cpm), were expressed as percentages of incorporation or growth inhibition. The sigmoid dose-response curve was then linearized by probit analysis with the aid of software provided by IWONL (Gent), adapted by G. Timperman and used to derive the IC50 values.
For experiments with P. berghei (Anka strain), the parasites were maintained, and the in vitro tests performed essentially the same as above, except for the following modification. In the case of tests using P. berghei, the parasites were incubated in the same conditions as for P. falciparum (above) except that the incubations were started immediately in the presence of the ^3H-hypoxanthine and for 24 hour total duration (i.e., no delay in the addition of the ^3H-hypoxanthine). As before, the incorporated radioactivity was used as a-measure for parasite growth.

[1] = test system: P. falciparum (NF54 strain, clone A149); test: In vitro 3H-hypoxanthine incorporation test with P. falciparum NF 54; assay type: cell-based, Plasmodium falciparum; conditions: NF 54, clone A149; six repeats; max. concentration 50 or 5 μg/ml
Method: Continuous in vitro cultures of asexual erythrocytic stages of P. falciparum (strain NF 54/64, clone A1A9) were maintained following essentially the method of Trager and Jensen (Science, 193, 673-675, 1976) at 37° C. under an atmosphere of 5% CO2, 5% O2, and 90% N2. The host cells were human erythrocytes (A or O Rh+). The culture medium was RPMI 1640 (Gibco), containing HEPES (BDH; 4.57 gL^−1), glucose (Sigma; 1.54 gL^−1), 5% NaHCO3 (Merck; 34.78 mlL^−1), and gentamycin (Merck; 8.70 mlL^−1) supplemented with 10% human plasma (A Rh+). Parasites were subinoculated every 3-4 days with initial conditions of 1% parasitemia and 1% hematocrit.
as §1, §2, §3

[2] = test system: P. falciparum (K1 strain); test: In vitro 3H-hypoxanthine incorporation test with chloroquine-resistant P. falciparum K1; assay type: cell-based, Plasmodium falciparum
Method: Selected compounds were also tested against drug-resistant parasites. The method was the same as above except for the following modifications. The parasite used was the chloroquine-resistant strain, K1, maintained essentially according to Desjardins, et al. (supra, 1979). The culture medium was RPMI-1640 containing TES (Sigma; 7.64 gL^−1), glucose (BDH; 1.67 gL^−1), NaHCO3 (BDH; 1.94 gL^−1), and gentamycin (Nicholas; 30 mgL^−1) supplemented with 10% human serum (A RH+). Parasites were subinoculated every 3-4 days with initial conditions of 1% parasitemia and 2.5% hematocrit. For the testing, small aliquots of test material were dissolved in 20 μl EtOH and RPMI 1640 to give solutions of 1 or 10 mg ml^−1. Each was applied in a series of twelve, […] dilutions (final […] ranging from 50 to 1.19×10^−3 μg ml^−1). Chloroquine diphosphate (Sigma) was used in the same experiments as a reference and also in twelve, 4-fold dilutions (final concentrations 2×10^−5-1.19×10^−12M). Each compound was tested in duplicate.
Testing was performed in vitro based upon the method of Desjardins, et al (supra, 1979), as modified by O'Neill, et al. (Planta Med., 51, 394-399, 1985) and Ekong, et al. (Biochem. Pharmacol., 40, 297-301, 1990). The parasites (50 μl initial parasitemia of 1%, hematocrit of 5%) were incubated for 24 h in microtitre plates (Nunc) in normal (not hypoxanthine-depleted) medium in the presence of 50 μl of test solution. Controls were set up in each test by preparing 12-24 wells with non-parasitized RBC's and no test solution and 12-24 wells with parasitized RBC's and no test compound. Thereafter, 5 μl all of ^3H-hypoxanthine (Amersham) were added (0.2 μCi well ^−1), and the parasites incubated for a further period of 18 h. Each well was harvested with a Cell Harvester (Skatron). Glass fibre filters were dried briefly. Radioactivity was measured by liquid scintillation counting in Ecoscint (National Diagnostics).
The results obtained as cpm were expressed as percentages of incorporation of growth inhibition. The dose-related part of the sigmoidal curves obtained were linearized by regression analysis with the aid of software developed by S. Grant (I.SHTM) and used to calculate the IC50 values.

[3] = test system: Plasmodium berghei (Anka strain); test: In vivo antimalarial test in OF1 mice inoculated with P. berghei; conditions: for Parasitemia (%) at day 4 / Parasitemia (%) at day 10: average (95% CI)
Method: Outbred, female, six-week-old OF1 mice (six mice per group treated and nontreated [control]) were inoculated intraperitoneally on day 0 with 10^6 P. berghei (Anka strain) blood forms. Two hours later, they were administered orally 50 mg/kg of dioncopeltine A or dioncophylline B. A second, third, and fourth treatment (50 mg/kg each) was given after 24, 48 and 72 h, respectively (days 1, 2, and 3). […] The parasitemia (%) in the control (not drug-treated) group was 3.50 (range 3.02-3.97; N=6). In the dioncopeltine A treated group, the parasitemia was 0.03 (range 0.01-0.06; N=6); in the dioncophylline B treated group, the parasitemia was […] (range 0.66-3.07; N=6).
The in vivo antimalarial testing was performed as described above, except that more doses and different treatment schedules were employed, as described in Tables 3 and 4.

[4] = 50 mg/kg/d oral, 1 day of treatment
[5] = 50 mg/kg/d oral, 2 days of treatment
[6] = 50 mg/kg/d oral, 3 days of treatment
[7] = 50 mg/kg/d oral, 4 days of treatment
[8] = oral treatment with 4×50 mg/kg/d

Michellamine B
IC50 P. berghei, Anka (P. berghei (Anka)): >50 µg/mL | IC50 P. falciparum NF54 strain [1]: 20.185 µg/mL

COc1cc2c(c(OC)c1-c1ccc(OC)c3c(OC)cc(C)cc13)[C@@H](C)N(C)[C@@H](C)C2 [Ancistrobrevine A]
IC50 P. falciparum NF54 strain [1]: 19.336 µg/mL (≈ 44.4 µM)

COc1cccc2c(-c3ccc4c(c3O)C(C)N(C)C(C)C4)c(C)cc(OC)c12 (single isomer, unassigned) [N-methyl-dioncophylline A (atropisomers)]
IC50 P. falciparum NF54 strain [1]: 17.411 µg/mL (≈ 44.5 µM)

7-epi-dioncophylline A
IC50 P. falciparum NF54 strain [1]: 0.190 µg/mL

N-formyl-dioncophylline C
IC50 P. falciparum NF54 strain [1]: 3.132 µg/mL

COc1cc(O)c(-c2c(C)cc(OC)c3c(OC)cccc23)c2c1[C@H](C)N[C@@H](C)C2 [Hamatine]
IC50 P. berghei, Anka (P. berghei (Anka)): 5.565 µg/mL (≈ 13.7 µM) | IC50 P. falciparum NF54 strain [1]: 3.338 µg/mL (≈ 8.19 µM)

COc1cccc2c(-c3ccc4c(c3O)[C@@H](C)N[C@H](C)C4)c(C)cc(OC)c12 [Dioncophylline A]
IC50 P. berghei, Anka (P. berghei (Anka)): 0.961 µg/mL (≈ 2.55 µM) | IC50 P. falciparum, K1 strain [2]: 0.860 µg/mL (≈ 2.28 µM) | IC50 P. falciparum NF54 strain [1]: 1.443 µg/mL (≈ 3.82 µM)

N-formyl-O,O-dimethyl-dioncophylline C
IC50 P. falciparum NF54 strain [1]: >50 µg/mL

Ancistrobrevine D
IC50 P. berghei, Anka (P. berghei (Anka)): 6.069 µg/mL | IC50 P. falciparum, K1 strain [2]: 10.440 µg/mL | IC50 P. falciparum NF54 strain [1]: 12.222 µg/mL

COc1cc(O)c(-c2c(C)cc(OC)c3c(OC)cccc23)c2c1[C@H](C)N[C@@H](C)C2 [Ancistrocladine]
IC50 P. berghei, Anka (P. berghei (Anka)): >50 µg/mL | IC50 P. falciparum, K1 strain [2]: 25.350 µg/mL (≈ 62.2 µM) | IC50 P. falciparum NF54 strain [1]: 18.353 µg/mL (≈ 45 µM)

Dioncolactone A
IC50 P. berghei, Anka (P. berghei (Anka)): 0.598 µg/mL | IC50 P. falciparum NF54 strain [1]: 1.337 µg/mL

COc1c(-c2c(C)cc(OC)c3c(O)cccc23)ccc2c1C(C)NC(C)C2 (stereo not drawn) [8-O-methyl-5′-O-demethyl-7-epi-dioncophylline A]
IC50 P. berghei, Anka (P. berghei (Anka)): 4.580 µg/mL (≈ 12.1 µM) | IC50 P. falciparum NF54 strain [1]: 1.584 µg/mL (≈ 4.2 µM)

6-O-demethyl-8-O-methyl-7-epi-ancistrobrevine C
IC50 P. falciparum NF54 strain [1]: 10.326 µg/mL

COc1c(C)nc(C)c2c(OC)c(-c3c(C)cc(OC)c4c(OC)cccc34)ccc12 [(±)-dioncophyllacine A]
IC50 P. falciparum NF54 strain [1]: 17.571 µg/mL (≈ 42.1 µM)

COc1cc(C)c(-c2ccc(O)c3c2C[C@@H](C)N[C@@H]3C)c2cccc(O)c12 [Dioncophylline C]
IC50 P. berghei, Anka (P. berghei (Anka)): 0.015 µg/mL (≈ 0.0413 µM) | Parasitemia (%) at day 4 ([3]; 3.125 mg/kg/d oral, days 0-3): 5.36 (3.96 − 6.75) % | Parasitemia (%) at day 4 ([3]; 6.25 mg/kg/d oral, days 0-3): 4.42 (2.77 − 6.06) % | Parasitemia (%) at day 4 ([3]; 12.5 mg/kg/d oral, days 0-3): 3.36 (2.35 − 4.37) % | Parasitemia (%) at day 10 ([3]; 12.5 mg/kg/d oral, days 0-3): 26.91 (0.00 − 60.36) % | Parasitemia (%) at day 4 ([3]; 25 mg/kg/d oral, days 0-3): 0.62 (0.00 − 1.34) % | Parasitemia (%) at day 10 ([3]; 25 mg/kg/d oral, days 0-3): 29.82 (11.20 − 48.43) % | Parasitemia (%) at day 4 [3, 4]: 0.02 (0.00 − 0.05) % | Parasitemia (%) at day 10 [3, 4]: 7.87 (0.00 − 23.92) % | Parasitemia (%) at day 4 [3, 5]: 0.01 (0.00 − 0.02) % | Parasitemia (%) at day 10 [3, 5]: 0.41 (0.00 − 1.38) % | Number of OF1 negative (neg) at day 10 ([3]; 50 mg/kg/d oral, 2 days of treatment, n = 5): (2 0F1 neg) | Parasitemia (%) at day 4 [3, 6]: 0.00 (0.00 − 0.00) % | Parasitemia (%) at day 10 [3, 6]: 0.003 (0.000 − 0.012) % | Number of OF1 negative (neg) at day 10 ([3]; 50 mg/kg/d oral, 3 days of treatment, n = 6): (5 0F1 neg) | Parasitemia (%) at day 4 [3, 7]: 0.00 (0.00 − 0.00) % | Parasitemia (%) at day 10 [3, 7]: 0.00 (0.00 − 0.00) % | Number of OF1 negative (neg) at day 10 ([3]; 50 mg/kg/d oral, 4 days of treatment, n = 6): (6 0F1 neg) | Parasitemia (%) at day 4 ([3]; 50 mg/kg/d oral, days 0-3): 0.00 (0.00 − 0.00) % | Parasitemia (%) at day 10 ([3]; 50 mg/kg/d oral, days 0-3): 0.00 (0.00 − 0.00) % | Parasitemia (%) at day 4 ([3]; 100 mg/kg/d oral, days 0-3): 0.00 (0.00 − 0.00) % | Parasitemia (%) at day 10 ([3]; 100 mg/kg/d oral, days 0-3): 0.00 (0.00 − 0.00) % | Development of erythrocytic forms of P. berghei [3, 8]: completely and permanently inhibited | Indications of toxicity [3, 8]: no observed indications of any toxicity | IC50 P. falciparum NF54 strain [1]: 0.005 µg/mL (≈ 0.0138 µM)

Dioncophylleine A
IC50 P. falciparum NF54 strain [1]: 21.295 µg/mL

N-formyl-ancistrocladine
IC50 P. falciparum NF54 strain [1]: 8.129 µg/mL

N-methyl-ancistrocladine
IC50 P. falciparum NF54 strain [1]: 0.491 µg/mL

COc1cc(C)cc2c(-c3c(O)cc(O)c4c3C[C@@H](C)N[C@@H]4C)cc(-c3cc(-c4c(O)cc(O)c5c4C[C@@H](C)N[C@@H]5C)c4cc(C)cc(OC)c4c3O)c(O)c12 [Michellamine A]
IC50 P. berghei, Anka (P. berghei (Anka)): >50 µg/mL | IC50 P. falciparum NF54 strain [1]: 46.957 µg/mL (≈ 62 µM)

COc1cccc2c(-c3ccc4c(c3O)C(C)N(C)C(C)C4)c(C)cc(OC)c12 (stereo not shown) [N-methyl-dioncophylline A]
IC50 P. berghei, Anka (P. berghei (Anka)): 9.207 µg/mL (≈ 23.5 µM) | IC50 P. falciparum, K1 strain [2]: 5.749 µg/mL (≈ 14.7 µM) | IC50 P. falciparum NF54 strain [1]: 13.637 µg/mL (≈ 34.8 µM)

6-deoxy-N-methyl-ancistrocladine
IC50 P. falciparum NF54 strain [1]: 10.079 µg/mL

From patent US6627641B1, “Antimalarial naphthylisoquinoline alkaloids and pharmaceutical compositions and medical uses thereof” (The United States of America as represented by the …, priority 1994, dated 2003)
